Where “and” joins values, the source holds several entries; their conditions need not be identical. Equal entries are not always repeated.
Key:
[1] = test system: GH release stimulated by hGH-RH(1-29)NH2; test: In vivo inhibition of hGH-RH(1-29)NH2-stimulated serum GH in anesthetized rats; design: species or system Sprague-Dawley rats
Description: In Vivo Tests. Adult male Sprague-Dawley rats are anesthetized with pentobarbital (6 mg/100 g b.w., i.p.). Blood samples are taken from the jugular vein 30 min after the injection of pentobarbital. One group of 7 animals receives hGH-RH(1-29)NH2 as control. […] Blood samples are taken from the jugular vein 5 and 15 min after the injection of antagonists. GH levels are measured by RIA. Potencies of the antagonists are calculated by the factorial analysis of Bliss and Marks with 95% confidence limits and are based on the doses of 100 and 400 μg/kg b.w. of the Standard antagonist and 20 and 80 μg/kg b.w. of the antagonists tested. Statistical significance was assessed by Duncan's new multiple range test.

[2] = test system: SW-1990 human pancreatic cancers; test: SW 1990 human pancreatic cancers in nude mice; format: in vivo
Description: Small piees of an SW-1990 rumor growing in a nude mouse were transplated s.c. into the right flanks of 60 nu/nu male nude mice. Ten days after transplantation, 40 mice with well growing tumors were groupled into 4 groups with equal average tumor volume (16 mm^3) in each group. Treatment started 13 days after transplantation and was continuted for 44 days. The tumors were measured and volume was calculated weekly. Tumor volume changes are shown in Table V. On day 45 of treatment the mice were sacraficed under Metofane anesthesia by exsanguination from abdominal aorta. Blood was collected, tumor and organ weights were determined.

GH release = conditions: cited from earlier work
[3] = 80 μg/kg i.v., 15 min prior to GH-RH(1-29)NH2 3 μg/kg

## CC[C@H](C)[C@H](NC(=O)[C@H](C)NC(=O)[C@H](CC(=O)O)NC(=O)[C@H](C)NC(=O)[C@@H](N)Cc1ccc(O)cc1)C(=O)N[C@@H](Cc1ccccc1)C(=O)N[C@H](C(=O)N[C@@H](CC(N)=O)C(=O)N[C@@H](CO)C(=O)N[C@@H](Cc1ccc(O)cc1)C(=O)N[C@@H](CCCNC(=N)N)C(=O)N[C@@H](CCCCN)C(=O)N[C@H](C(=O)N[C@@H](CC(C)C)C(=O)NCC(=O)N[C@@H](CCC(N)=O)C(=O)N[C@@H](CC(C)C)C(=O)N[C@@H](CO)C(=O)N[C@@H](C)C(=O)N[C@@H](CCCNC(=N)N)C(=O)N[C@@H](CCCCN)C(=O)N[C@@H](CC(C)C)C(=O)N[C@@H](CC(C)C)C(=O)N[C@@H](CCC(N)=O)C(=O)N[C@@H](CC(=O)O)C(=O)N[C@H](C(=O)N[C@@H](CCSC)C(=O)N[C@@H](CO)C(=O)N[C@@H](CCCNC(=N)N)C(N)=O)[C@@H](C)CC)C(C)C)[C@@H](C)O [GH-RH (1-29) NH2, Tyr-Ala-Asp-Ala-Ile^5 -Phe-Thr-Asn-Ser-Tyr^10 -Arg-Lys-Val-Leu-Gly^15 -Gln-Leu-Ser-Ala-Arg^20 -Lys-Leu-Leu-Gln-Asp^25 -Ile-Met-Ser-Arg^29 -NH2]
[1]; GH-RH(1-29)NH2 alone 3.0 μg/kg i.v. (stimulated control)
  Serum GH Levels: 695.15 ± 95.40 ng/mL and 703.34 ± 90.01 ng/mL and 724.68 ± 93.01 ng/mL and 883.36 ± 148.34 ng/mL and 703.34 ± 93.01 ng/mL

## Ibu^0 --D--Arg^2 --Phe(pCl)^6 --Abu^16 --Nle^27 ] hGHRH (1-28) Agm [Peptide A]
[2]; Peptide #8 at 10 μg/day
  effect on growth of SW-1990 cancers (volume and weight data): no significant effect on the tumors
[2]; dose 10, 44 days treatment
  Final Tumor Volume mm^3: 1183 ± 342 mm^3
  Tumor weights: 1467 ± 595 mg
[2]; dose 40, 44 days treatment
  Final Tumor Volume mm^3: 902 ± 156 mm^3
  Tumor weights: 1297 ± 258 mg
[1]; [3]
  Inhibition %: 43%
  Serum GH Levels: 585.33 ± 89.34 ng/mL
[1]; 80 μg/kg i.v., 30 min prior to GH-RH(1-29)NH2 3 μg/kg
  Serum GH Levels: 788.39 ± 96.93 ng/mL

## [AcTyr^1 ]hGH-RH(1-29)NH2
GH release
  in vivo potency over that of GH-RH: ten fold or more
